29 molecules from patent US12441691B2 (Cytokinetics, Inc., priority 2020, dated 2025) can be followed below.

This assay concerns rabbit skeletal myofibrils (fast skeletal myofibrils). As to the kind of experiment: Activation of fast skeletal myofibrils (PUMA assay, AC1.4). Format: biochemical. The settings on record: calcium at pCa25, AC1.4 = concentration at which the compound increased the enzymatic activity. A digest of the protocol:
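In 12 mM PIPES pH 6.8 with 2 mM MgCl2 and 1 mM DTT, Triton-washed rabbit skeletal myofibrils were run at the pCa25 calcium level. Myosin-made ADP was recycled through a PK/LDH coupled system; NADH loss read at 340 nm.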
Regarding `CC[C@H](C)[C@H]1C(=O)Nc2ccccc2CN1C(=O)Nc1ccc(=O)n(CC2CC2)c1` [Compound 254, (S)-3-((S)-sec-butyl)-N-(1-(cyclopropylmethyl)-6-oxo-1,6-dihydropyridin-3-yl)-2-oxo-1,2,3,5-tetrahydro-4H-benzo[e][1,4]diazepine-4-carboxamide], the AC1.4 came to 0.07 µM. The result for `CC[C@H](C)[C@H]1C(=O)Nc2ccccc2CN1C(=O)Nc1cccn(CCOC)c1=O` [Compound 255, (S)-3-((S)-sec-butyl)-N-(1-(2-methoxyethyl)-2-oxo-1,2-dihydropyridin-3-yl)-2-oxo-1,2,3,5-tetrahydro-4H-benzo[e][1,4]diazepine-4-carboxamide] reads 0.13 µM. On to `CC[C@H](C)[C@H]1C(=O)Nc2ccccc2CN1C(=O)N[C@@H](C)C(N)=O` [Compound 256, (S)-N-((S)-1-amino-1-oxopropan-2-yl)-3-((S)-sec-butyl)-2-oxo-1,2,3,5-tetrahydro-4H-benzo[e][1,4]diazepine-4-carboxamide], for which the AC1.4 was determined as 1.89 µM. Turning to `CC[C@H](C)[C@H]1C(=O)Nc2ccccc2CN1C(=O)Nc1cc(C(F)(F)F)c[nH]c1=O` [Compound 257, (S)-3-((S)-sec-butyl)-2-oxo-N-(2-oxo-5-(trifluoromethyl)-1,2-dihydropyridin-3-yl)-1,2,3,5-tetrahydro-4H-benzo[e][1,4]diazepine-4-carboxamide], the AC1.4 was found to be 0.02 µM. On to `CC[C@H](C)[C@H]1C(=O)Nc2ccccc2CN1C(=O)Nc1cc(-c2ccncc2)c[nH]c1=O` [Compound 258, (S)-3-((S)-sec-butyl)-2-oxo-N-(6-oxo-1,6-dihydro-[3,4′-bipyridin]-5-yl)-1,2,3,5-tetrahydro-4H-benzo[e][1,4]diazepine-4-carboxamide], for which the AC1.4 is 0.29 µM. For `CC[C@H](C)[C@H]1C(=O)Nc2ccccc2CN1C(=O)NCC(=O)N1CCC[C@H]1C(=O)O` [Compound 259, ((S)-3-((S)-sec-butyl)-2-oxo-2,3,4,5-tetrahydro-1H-benzo[e][1,4]diazepine-4-carbonyl)glycyl-L-proline], the AC1.4 is 2.44 µM. The same measure for `CC[C@H](C)[C@H]1C(=O)Nc2ccccc2CN1C(=O)NCCN1CCNC1=O` [Compound 260, (S)-3-((S)-sec-butyl)-2-oxo-N-(2-(2-oxoimidazolin-1-yl)ethyl)-1,2,3,5-tetrahydro-4H-benzo[e][1,4]diazepine-4-carboxamide]: 1.91 µM. Consider `CC[C@H](C)[C@H]1C(=O)Nc2ccccc2CN1C(=O)NCC1(CO)COC1` [Compound 261, (S)-3-((S)-sec-butyl)-N-((3-(hydroxymethyl)oxetan-3-yl)methyl)-2-oxo-1,2,3,5-tetrahydro-4H-benzo[e][1,4]diazepine-4-carboxamide], for which the AC1.4 was found to be 3.34 µM. For the molecule `CC[C@H](C)[C@H]1C(=O)Nc2ccccc2CN1C(=O)NCCCCN1CCC(C(N)=O)CC1` [Compound 262, (S)-3-((S)-sec-butyl)-N-(4-(4-carbamoylpiperidin-1-yl)butyl)-2-oxo-1,2,3,5-tetrahydro-4H-benzo[e][1,4]diazepine-4-carboxamide], the AC1.4 worked out at 0.46 µM. For `CC[C@H](C)[C@H]1C(=O)Nc2ccccc2CN1C(=O)NCC(C)(C)C(N)=O` [Compound 263, (S)-N-(3-amino-2,2-dimethyl-3-oxopropyl)-3-((S)-sec-butyl)-2-oxo-1,2,3,5-tetrahydro-4H-benzo[e][1,4]diazepine-4-carboxamide], the AC1.4 came to 2.70 µM. For the molecule `CC[C@H](C)[C@H]1C(=O)Nc2ccccc2CN1C(=O)N1CC(N2CCCC2)C1` [Compound 264, (S)-3-((S)-sec-butyl)-4-(3-(pyrrolidin-1-yl)azetidine-1-carbonyl)-1,3,4,5-tetrahydro-2H-benzo[e][1,4]diazepin-2-one], the AC1.4 was 0.84 µM. Consider `CC[C@H](C)[C@H]1C(=O)Nc2ccccc2CN1C(=O)N1CC(N2CCN(C)CC2)C1` [Compound 265, (S)-3-((S)-sec-butyl)-4-(3-(4-methylpiperazin-1-yl)azetidine-1-carbonyl)-1,3,4,5-tetrahydro-2H-benzo[e][1,4]diazepin-2-one], for which the AC1.4 amounted to 0.70 µM. For the molecule `CC[C@H](C)[C@H]1C(=O)Nc2ccccc2CN1C(=O)N1CC(N2CCOCC2)C1` [Compound 266, (S)-3-((S)-sec-butyl)-4-(3-morpholinoazetidine-1-carbonyl)-1,3,4,5-tetrahydro-2H-benzo[e][1,4]diazepin-2-one], the AC1.4 worked out at 2.47 µM. With `CC[C@H](C)[C@H]1C(=O)Nc2ccccc2CN1C(=O)N1CC(N2CCN(CCO)CC2)C1` [Compound 267, (S)-3-((S)-sec-butyl)-4-(3-(4-(2-hydroxyethyl)piperazin-1-yl)azetidine-1-carbonyl)-1,3,4,5-tetrahydro-2H-benzo[e][1,4]diazepin-2-one], the AC1.4 was found to be 0.95 µM.

`CC[C@H](C)[C@H]1C(=O)Nc2ccccc2CN1C(=O)N1CC(N2CCN(c3ccccn3)CC2)C1` [Compound 268, (S)-3-((S)-sec-butyl)-4-(3-(4-(pyridin-2-yl)piperazin-1-yl)azetidine-1-carbonyl)-1,3,4,5-tetrahydro-2H-benzo[e][1,4]diazepin-2-one]: the AC1.4 was determined as 1.03 µM. As to `CC[C@H](C)[C@H]1C(=O)Nc2ccccc2CN1C(=O)N1CC(OCC(=O)N(C)C)C1` [Compound 269, 2-((1-((S)-3-((S)-sec-butyl)-2-oxo-2,3,4,5-tetrahydro-1H-benzo[e][1,4]diazepine-4-carbonyl)azetidin-3-yl)oxy)-N,N-dimethylacetamide], the AC1.4 stood at 0.92 µM. For `CC[C@H](C)[C@H]1C(=O)Nc2ccccc2CN1C(=O)N1CC(OCC(=O)NC)C1` [Compound 270, 2-((1-((S)-3-((S)-sec-butyl)-2-oxo-2,3,4,5-tetrahydro-1H-benzo[e][1,4]diazepine-4-carbonyl)azetidin-3-yl)oxy)-N-methylacetamide], the AC1.4 was 0.94 µM. On to `CC[C@H](C)[C@H]1C(=O)Nc2ccccc2CN1C(=O)N1CC(C)(N)C1` [Compound 271, (S)-4-(3-amino-3-methylazetidine-1-carbonyl)-3-((S)-sec-butyl)-1,3,4,5-tetrahydro-2H-benzo[e][1,4]diazepin-2-one], for which the AC1.4 was 0.95 µM.

As for `CC[C@H](C)[C@H]1C(=O)Nc2ccccc2CN1C(=O)N1C2COCC1C2` [Compound 272, (3S)-4-(3-oxa-6-azabicyclo[3.1.1]heptane-6-carbonyl)-3-((S)-sec-butyl)-1,3,4,5-tetrahydro-2H-benzo[e][1,4]diazepin-2-one], the AC1.4 turned out to be 2.62 µM. As to `CC[C@H](C)[C@H]1C(=O)Nc2ccccc2CN1C(=O)NC1(C#N)CC1` [Compound 273, (S)-3-((S)-sec-butyl)-N-(1-cyanocyclopropyl)-2-oxo-1,2,3,5-tetrahydro-4H-benzo[e][1,4]diazepine-4-carboxamide], the AC1.4 turned out to be 3.02 µM. Turning to `CC[C@H](C)[C@H]1C(=O)Nc2ccccc2CN1C(=O)Nc1ccc(=O)n(CC(F)F)n1` [Compound 274, (S)-3-((S)-sec-butyl)-N-(1-(2,2-difluoroethyl)-6-oxo-1,6-dihydropyridazin-3-yl)-2-oxo-1,2,3,5-tetrahydro-4H-benzo[e][1,4]diazepine-4-carboxamide], the AC1.4 was 0.06 µM. As to `CC[C@H](C)[C@H]1C(=O)Nc2ccccc2CN1C(=O)Nc1ccc(=O)n(CC(F)(F)F)n1` [Compound 275, (S)-3-((S)-sec-butyl)-2-oxo-N-(6-oxo-1-(2,2,2-trifluoroethyl)-1,6-dihydropyridazin-3-yl)-1,2,3,5-tetrahydro-4H-benzo[e][1,4]diazepine-4-carboxamide], the AC1.4 turned out to be 0.06 µM. In the case of `CC[C@H](C)[C@H]1C(=O)Nc2ccccc2CN1C(=O)NCc1ccccc1` [Compound 276, (S)-N-benzyl-3-((S)-sec-butyl)-2-oxo-1,2,3,5-tetrahydro-4H-benzo[e][1,4]diazepine-4-carboxamide], the AC1.4 turned out to be 0.24 µM. The same measure for `CC[C@H](C)[C@H]1C(=O)Nc2ccccc2CN1C(=O)Nc1cccc(F)c1` [Compound 277, (S)-3-((S)-sec-butyl)-N-(3-fluorophenyl)-2-oxo-1,2,3,5-tetrahydro-4H-benzo[e][1,4]diazepine-4-carboxamide]: 0.08 µM; for `CC[C@H](C)[C@H]1C(=O)Nc2ccccc2CN1C(=O)Nc1cnc2[nH]ncc2c1` [Compound 278, (S)-3-((S)-sec-butyl)-2-oxo-N-(1H-pyrazolo[3,4-b]pyridin-5-yl)-1,2,3,5-tetrahydro-4H-benzo[e][1,4]diazepine-4-carboxamide]: 0.05 µM; for `CC[C@H](C)[C@H]1C(=O)Nc2ccccc2CN1C(=O)N1CC[C@H](C(=O)OC)C1` [Compound 279, methyl (S)-1-((S)-3-((S)-sec-butyl)-2-oxo-2,3,4,5-tetrahydro-1H-benzo[e][1,4]diazepine-4-carbonyl)pyrrolidine-3-carboxylate]: 1.46 µM.

`CC[C@H](C)[C@H]1C(=O)Nc2ccccc2CN1C(=O)N1CC[C@@H](O)C1` [Compound 280, (S)-3-((S)-sec-butyl)-4-((R)-3-hydroxypyrrolidine-1-carbonyl)-1,3,4,5-tetrahydro-2H-benzo[e][1,4]diazepin-2-one]: the AC1.4 stood at 1.06 µM. Regarding `CC[C@H](C)[C@H]1C(=O)Nc2ccccc2CN1C(=O)N1CCN(CCc2ccccc2)CC1` [Compound 281, (S)-3-((S)-sec-butyl)-4-(4-phenethylpiperazine-1-carbonyl)-1,3,4,5-tetrahydro-2H-benzo[e][1,4]diazepin-2-one], the AC1.4 was found to be 0.30 µM.

As to `CC[C@H](C)[C@H]1C(=O)Nc2ccccc2CN1C(=O)N1CC[C@H](O)C1` [Compound 282, (S)-3-((S)-sec-butyl)-4-((S)-3-hydroxypyrrolidine-1-carbonyl)-1,3,4,5-tetrahydro-2H-benzo[e][1,4]diazepin-2-one], the AC1.4 was 0.38 µM.
